Read-outs that look alike come from different tables or passages of the source.
Tests used:
CPG2 [1] = molecular target: T1, CPG2 (Pseudomonas sp., UniProt P06621); assay type: biochemical; details: for Vmax: disappearance of substrate and/or appearance of product
T1 construct: HA (C); His (C); host or cells: E. coli
Description: CPG2 proteins were produced and purified by GenScript. Constructs contain c-terminal HA and His epitope tags and were purified by nickel columns.

CPG2 [2] = molecular target: T1, CPG2; experiment: Amplex Red glutamate release assay with recombinant CPG2; assay type: biochemical; details: incubated with recombinant CPG2, FIG. 2
Protocol: FIG. 2 provides the results of incubating APdMG-Glu, an embodiment of a prodrug compound of the present technology, with increasing concentration of recombinant CPG2 where glutamate release was measured in an Amplex Red assay, according to the working examples.
Recombinant CPG2 enzyme was incubated with prodrugs in CPG2 reaction buffer (1M TrisHCL, 2 mM ZnCl2) for 2 hr at 37° C. and the enzyme/prodrug mixture was combined 1:1 with Amplex Red™ Glutamate Oxidase Assay mixture (Thermo cat # A12221). Following 30 min at 37° C. fluorescent emission at 590 nm was measured on a SpectraMax M2 plate reader (Molecular Devices). Data were analyzed with SoftMax Pro software.

HCC827 (adenocarcinoma) = experiment: Cell-Titer Glo cytotoxicity assay, HCC827 cells; assay type: cell-based; details: for cytotoxicity (cell viability): HCC827, 48 hrs; for IC50: Homo sapiens, 48 hours of drug treatment, ≥ 6 drug dilutions (3-fold)
Protocol: FIG. 3 provides the results of HCC827 cells incubated for 48 hrs. with or without CPG2 in the presence of APdMG-Glu where cell viability was measured by Cell-Titre Glo, according to the working examples. The viability of the cells incubated with the active version of the drug (O-(3-aminopropyl)-des-morpholino-gefitinib) are shown for comparison.
(§1) Prodrug/Drug IC50 and trans and cis-toxicity assays with secreted enzyme were performed using Cell-Titer Glo (Promega). Cells were analyzed in triplicate wells of a 96-well dish and equivalent volume of Cell-Titer Glo reagent was added to each well. Following a 10-minute incubation at room temperature samples were transferred to White 96-well Optiplate (Perkin Elmer) and luminescence was measured on a SpectraMax M2 plate reader (Molecular Devices). Data were analyzed with SoftMax Pro software.

PC9 (adenocarcinoma) = experiment: Cell-Titer Glo cytotoxicity assay, PC9 cells; assay type: cell-based; details: for IC50: Homo sapiens, PC-9, 48 hours of drug treatment, ≥ 6 drug dilutions (3-fold)
Protocol: as §1

[3] = substrate of CPG2, RapidFire-MS

T1 sequence (P06621 23-415): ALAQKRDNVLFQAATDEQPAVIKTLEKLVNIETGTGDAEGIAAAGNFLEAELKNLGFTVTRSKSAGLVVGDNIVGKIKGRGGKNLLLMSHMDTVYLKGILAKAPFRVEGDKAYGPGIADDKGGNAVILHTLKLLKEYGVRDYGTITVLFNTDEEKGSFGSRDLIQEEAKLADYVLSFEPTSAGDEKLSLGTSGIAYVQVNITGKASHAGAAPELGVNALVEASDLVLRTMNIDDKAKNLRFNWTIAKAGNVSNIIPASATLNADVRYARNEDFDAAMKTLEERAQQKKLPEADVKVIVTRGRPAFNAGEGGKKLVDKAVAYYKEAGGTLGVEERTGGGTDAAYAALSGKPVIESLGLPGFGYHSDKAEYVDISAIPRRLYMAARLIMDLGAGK

| Structure (SMILES) | Km (CPG2 [1]; [3]) [µM] | kcat (CPG2 [1]; [3]) [s⁻¹] | Vmax (CPG2 [1]; [3]) [µM/s] | cleavage of the glutamate moiety (glutamate release) (CPG2 [2]) | cytotoxicity (cell viability) (HCC827 (adenocarcinoma); plus recombinant CPG2, FIG. 3) | cytotoxicity (cell viability) (HCC827 (adenocarcinoma); prodrug alone without CPG2, FIG. 3) | Selective index (HCC827 (adenocarcinoma); HCC827, prodrug vs active drug) | IC50 (HCC827 (adenocarcinoma); HCC827) [nM] | IC50 (PC9 (adenocarcinoma)) [nM] | Selective index (PC9 (adenocarcinoma); prodrug vs active drug) | Km (CPG2 [1]) [µM] |
| --- | --- | --- | --- | --- | --- | --- | --- | --- | --- | --- | --- |
| COc1cc2ncnc(Nc3ccc(F)c(Cl)c3)c2cc1OCCCNC(=O)OCc1ccc(NC(=O)N[C@@H](CCC(=O)O)C(=O)O)cc1 [APdMG-Glu, ((4-((((3-((4-((3-chloro-4-fluorophenyl)amino)-7-methoxyquinazolin-6-yl)oxy)propyl)carbamoyl)oxy)methyl)phenyl)carbamoyl)-L-glutamic acid] | 2.25 | 0.137 | 0.10 | confirm cleavage of the glutamate moiety | cytotoxicity comparable to that of the parent drug gefitinib | not APdMG-Glu alone | 5.5 | 110 | 240 | 6 |  |
| CN(Cc1cnc2nc(N)nc(N)c2n1)c1ccc(C(=O)N[C@@H](CCC(=O)O)C(=O)O)cc1 [methotrexate, reference compound] |  | 10.36 | 0.39 |  |  |  |  |  |  |  | 9.45 |
| COc1cc2ncnc(Nc3ccc(F)c(Cl)c3)c2cc1OCCCN [APdMG, 6-(3-Aminopropoxy)-N-(3-chloro-4-fluorophenyl)-7-methoxyquinazolin-4-amine] |  |  |  |  |  |  |  | 20 | 210 |  |  |
